Experimental data reported in patent US10758744B2, “Combination of an oxidant and a photoactivator for the wounds” (KLOX TECHNOLOGIES INC., priority 2008, dated 2020).

Test system: Hep G2 human hepatocellular carcinoma cells
Conditions: 24 hours, 0.001 to 100 μM, compared to untreated cells
Experimental: Hep G2 cells were treated for 24 hours with increasing concentrations (0.001 to 100 μM) of Eosin Y, or left untreated (CTL).
Hep G2 cells were treated for 24 hours with increasing concentrations (0.001 to 100 μM) of Erythrosine B, or left untreated (CTL). Staurosporine (STS) was used as a positive control inducing cellular mortality.
The toxicity of the photoactivators Eosin Y and Erythrosine B was evaluated by measuring the cytotoxicity of these compounds on human cells. Hep G2 human hepatocellular carcinoma cells with an epithelial morphology were treated for 24 hours with increasing concentrations (0.001 to 100 μM) of Eosin Y or Erythrosine B, and the cellular survival was evaluated.

**Q.** With `CN[C@@H]1C[C@H]2O[C@@](C)([C@@H]1OC)n1c3ccccc3c3c4c(c5c6ccccc6n2c5c31)C(=O)NC4` [Staurosporine] as the compound, how does the cellular viability read?
**A.** caused a dose-dependent effect
